In patent US9113629B2, “4-amino-6-(4-substituted-phenyl)-picolinates and 6-amino-2-(4-substituted-phenyl)-pyrimidine-4-carboxylates and their use as herbicides” (DOW AGROSCIENCES LLC, priority 2013, dated 2015):
Like-named read-outs stand apart in the source and are kept apart here.

Legend:
[1] = tested on: Key Grass and Sedge Weeds as well as Grass Crops; assay: Post-emergent Test II herbicidal activity (Table 6); assay type: in vivo; conditions: post-emergence, 336 h; for pest or weed control at 70 g/ha: 70 g ai/ha; for pest or weed control at 140 g/ha: 140 g ai/ha
Summary of the method: (§1)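 Scoring: visual, 0–100% injury at 14 d versus untreated. Treatment: overhead track spray, 187 L/ha, onto plants at the first–second true leaf stage. Growth: greenhouse, ~15 h light, 23–29 °C day, 22–28 °C night.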

[2] = tested on: Key Broadleaf Weed and Crop Species; assay: Post-emergent Test II herbicidal activity (Table 5); assay type: in vivo; conditions: post-emergence, 336 h, 14 days after application; for pest or weed control at 70 g/ha: application rate 70 g ai/ha; for pest or weed control at 140 g/ha: application rate 140 g ai/ha
Summary of the method: as §1

[3] = CYPES: yellow nutsedge (Cyperus esculentus), read-out: Visual Growth Reduction (%) 14 Days After Application, CYPES
[4] = DIGSA: crabgrass (Digitaria sanguinalis), read-out: Visual Growth Reduction (%) 14 Days After Application, DIGSA
[5] = ECHCG: barnyardgrass (Echinochloa crus-galli), read-out: Visual Growth Reduction (%) 14 Days After Application, ECHCG
[6] = ORYSA: rice (Oryza sativa), crop, read-out: Visual Growth Reduction (%) 14 Days After Application, ORYSA
[7] = SETFA: giant foxtail (Setaria faberi), read-out: Visual Growth Reduction (%) 14 Days After Application, SETFA
[8] = SORVU: grain sorghum (Sorghum vulgare), read-out: Visual Growth Reduction (%) 14 Days After Application, SORVU
[9] = TRZSS (wheat, Triticum aestivum), crop, read-out: Visual Growth Reduction (%) 14 Days After Application, TRZSS
[10] = ZEAMX: maize, corn (Zea mays), crop, read-out: Visual Growth Reduction (%) 14 Days After Application, ZEAMX
[11] = ABUTH: velvetleaf (Abutilon theophrasti), read-out: Visual Growth Reduction (%) 14 Days After Application, ABUTH
[12] = AMARE: redroot pigweed (Amaranthus retroflexus), read-out: Visual Growth Reduction (%) 14 Days After Application, AMARE
[13] = BRSNN: oilseed-rape, canola (Brassica napus), read-out: Visual Growth Reduction (%) 14 Days After Application, BRSNN
[14] = CHEAL: lambsquarters (Chenopodium album), read-out: Visual Growth Reduction (%) 14 Days After Application, CHEAL
[15] = EPHHL: wild poinsettia (Euphorbia heterophylla), read-out: Visual Growth Reduction (%) 14 Days After Application, EPHHL
[16] = HELAN: sunflower (Helianthus annuus), read-out: Visual Growth Reduction (%) 14 Days After Application, HELAN
[17] = VIOTR: wild pansy (Viola tricolor), read-out: Visual Growth Reduction (%) 14 Days After Application, VIOTR

| SMILES | pest or weed control at 70 g/ha [1, 3] | pest or weed control at 140 g/ha [1, 3] | pest or weed control at 70 g/ha [1, 4] | pest or weed control at 140 g/ha [1, 4] | pest or weed control at 70 g/ha [1, 5] | pest or weed control at 140 g/ha [1, 5] | pest or weed control at 70 g/ha [1, 6] | pest or weed control at 140 g/ha [1, 6] | pest or weed control at 140 g/ha [1, 7] | pest or weed control at 70 g/ha [1, 8] | pest or weed control at 140 g/ha [1, 8] | pest or weed control at 70 g/ha [1, 9] | pest or weed control at 140 g/ha [1, 9] | pest or weed control at 70 g/ha [1, 10] | pest or weed control at 140 g/ha [1, 10] | melting point | pest or weed control at 70 g/ha [2, 11] | pest or weed control at 140 g/ha [2, 11] | pest or weed control at 70 g/ha [2, 12] | pest or weed control at 140 g/ha [2, 12] | further results |
| --- | --- | --- | --- | --- | --- | --- | --- | --- | --- | --- | --- | --- | --- | --- | --- | --- | --- | --- | --- | --- | --- |
| COc1c(N)nc(-c2ccc(Br)cc2F)nc1C(=O)O [Compound 46] | 95 to 100% | 95 to 100% | 45 to 59% | 60 to 74% | 85 to 94% | 85 to 94% | 0 to 29% | 0 to 29% | 85 to 94% | 45 to 59% | 60 to 74% | 45 to 59% | 60 to 74% | 45 to 59% | 45 to 59% | 133 to 135 °C | 95 to 100% | 95 to 100% | 85 to 94% | 95 to 100% | pest or weed control at 70 g/ha [1, 7]: 75 to 84%; pest or weed control at 70 g/ha [2, 13]: 95 to 100%; pest or weed control at 140 g/ha [2, 13]: 95 to 100%; pest or weed control at 70 g/ha [2, 14]: 95 to 100%; pest or weed control at 140 g/ha [2, 14]: 95 to 100%; pest or weed control at 70 g/ha [2, 15]: 95 to 100%; pest or weed control at 140 g/ha [2, 15]: 95 to 100%; pest or weed control at 70 g/ha [2, 16]: 85 to 94%; pest or weed control at 140 g/ha [2, 16]: 95 to 100%; pest or weed control at 70 g/ha [2, 17]: 45 to 59%; pest or weed control at 140 g/ha [2, 17]: 95 to 100% |
| C#Cc1ccc(-c2nc(C(=O)O)c(Cl)c(N)c2F)c(F)c1F [Compound 50] | 0 to 29% | 0 to 29% | 0 to 29% | 45 to 59% | 45 to 59% | 75 to 84% | 0 to 29% | 0 to 29% | 45 to 59% | 0 to 29% | 0 to 29% | 0 to 29% | 0 to 29% | 95 to 100% | 95 to 100% | 174 to 176 °C | 60 to 74% | 60 to 74% | 0 to 29% | 0 to 29% | pest or weed control at 70 g/ha [1, 7]: 30 to 44%; pest or weed control at 70 g/ha [2, 13]: 0 to 29%; pest or weed control at 140 g/ha [2, 13]: 0 to 29%; pest or weed control at 70 g/ha [2, 14]: 0 to 29%; pest or weed control at 140 g/ha [2, 14]: 0 to 29%; pest or weed control at 70 g/ha [2, 15]: 45 to 59%; pest or weed control at 140 g/ha [2, 15]: 95 to 100%; pest or weed control at 70 g/ha [2, 16]: 45 to 59%; pest or weed control at 140 g/ha [2, 16]: 60 to 74%; pest or weed control at 70 g/ha [2, 17]: 0 to 29%; pest or weed control at 140 g/ha [2, 17]: 0 to 29% |
| COC(=O)c1nc(-c2ccc(Br)cc2F)c(F)c(N)c1Cl [Compound 52] | 95 to 100% | 95 to 100% | 85 to 94% | 85 to 94% | 60 to 74% | 75 to 84% | 0 to 29% | 0 to 29% | 85 to 94% | 95 to 100% | 95 to 100% | 30 to 44% | 30 to 44% | 95 to 100% | 95 to 100% | 146 to 148 °C | 95 to 100% | 95 to 100% | 95 to 100% | 95 to 100% | pest or weed control at 70 g/ha [2, 13]: 95 to 100%; pest or weed control at 140 g/ha [2, 13]: 95 to 100%; pest or weed control at 70 g/ha [2, 14]: 95 to 100%; pest or weed control at 140 g/ha [2, 14]: 95 to 100%; pest or weed control at 70 g/ha [2, 15]: 95 to 100%; pest or weed control at 140 g/ha [2, 15]: 95 to 100%; pest or weed control at 70 g/ha [2, 16]: 95 to 100%; pest or weed control at 140 g/ha [2, 16]: 95 to 100%; pest or weed control at 70 g/ha [2, 17]: 95 to 100%; pest or weed control at 140 g/ha [2, 17]: 95 to 100% |
